The conditions of series [1]: rat, in vivo.
The subject of series [2] is porcine pancreatic lipase. Put plainly: Lipase assay: resistance to hydrolysis by porcine pancreatic lipase. As to conditions: pig, pH 8. It counts as in vitro ADME. The method, then:
The polyglycerols in Examples III, IV, V, VI, VII, X, XI were subjected to digestion by porcine pancreatic lipase to test for resistance to hydrolysis. This test is an indicator of resistance to digestion within a mammalian digestive system.
Lipase Assay--The following materials and procedure were employed:
0.05M Tris-HCl buffered at pH=8.0 at 37° C.
60 mg porcine pancreatic lipase (Sigma Cat. No. L3126) to 5.0 ml of the above L-histidine solution.
Olive oil is used as a standard in these assays. The olive oil is from Sigma, cataloque number 01500.
1. Weigh 0.2000 grams of standard or sample into each of three 125 ml Erlenmeyer flasks.
2. To each flask add 8.0 ml of Salts solution, and 1.0 ml of the 0.05M Tris-HCl solution. Stopper each flask and place them in a shaker water bath equilibrated to 37° C. Commence agitation at 250 rpm. A New Brunswick shaker water bath was used throughout this study.
3. After the samples have equilibrated to temperature, 15-20 minutes, add 1.0 ml of enzyme to each of two flasks and 1.0 ml of histidine solution to the third flask as a blank. Stagger the addition to each flask by at least 30 seconds. The third flask in each set is the sample blank, which accounts for any free acids in the sample. Reactions should run both for 1 hour and 18 hours.
4. When reaction time has expired, add 50 ml of isopropanol to each flask. Prior to titration with 0.05-0.10N KOH in methanol, add a few drops of 1% phenolphthalein in ethanol to each flask. The exact concentration of .the potassium hydroxide solution should be standardized using KHP, potassium hydrogen phthalate. Titrate each flask to the pink endpoint and record the amount of base required to neutralize the sample. If solubility is a problem, warm sample slightly in a water bath prior to titration.
5. For olive oil, the % hydrolysis for each sample will be the mmoles KOH divided by the mmoles fatty acids available×(times) 100. An average molecular weight for olive oil of 880 g/mole can be used The corrected % hydrolysis is the % hydrolysis for the lipase-treated sample minus the % hydrolysis for the blank. For more heterogeneous samples (complex esters), the % hydrolysis can be calculated as the (AV/SAP Value)×100. The AV for each sample is (mmole KOH sample--mmole KOH blank) (56 mg KOH/mmole)/sample weight in grams. The saponification value can be determined using a method such as A.O.C.S. Official Method Cd 3-25. It is defined as the mg KOH required to saponify a gram of sample. The % hydrolysis can then be determined by taking a ratio of the measured AV after lipase treatment/SAP VALUE 100.

For series [3] the following is noted: in vivo; cited from earlier work.

Consider 6 substances from US5399371A, “Low calorie substitute for an edible oil” (Henkel Corporation, priority 1993, dated 1995).

As to Polyglycerol polyoleate [Example VII], the “% Digested in Rats” value in series [1] was found to be 70%. Further, in series [2], the “Percent Hydrolysis 1 hr.” value is given as 4.2% and the “Percent Hydrolysis 18 hrs.” value is 7.8%.
In the case of Polyglycerol polyoleate [Example XI], the “% Digested in Rats” value in series [1] is 50%. Further, in series [2], the “Percent Hydrolysis 1 hr.” value came out at 0.5% and the “Percent Hydrolysis 18 hrs.” value was 5.3%.
The corresponding values for “Propoxylated polyglycerol polyoleate [Example IV]” are 26%, 2.7% and 2.3%.
Taken in the same sequence, the figures for “Propoxylated polyglycerol polytallowate [Example V]” were 18%, 2.4% and 3.8%.
On to decaglycerol dodecaoleate, for which, in series [3], the “absorption / hydrolysis and metabolism in rat feeding studies” value is on record as “substantially absorbed”.
polyglycerol polyoleate [Example III]: the “% Digested in Rats” value in series [1] came to 52%. In addition, in series [2], the “Percent Hydrolysis 1 hr.” value is 2.7% and the “Percent Hydrolysis 18 hrs.” value amounted to 4.4%.
